Measured values published in patent publication US11311609B2, “Regulating chimeric antigen receptors” (DANA-FARBER CANCER INSTITUTE, INC., priority 2017, dated 2022).

Legend:
Assay type in all cases: cell-based
[1] = tested on: proteins fused to mutant FKBP* with an HA tag; assay: Immunoblot of dTAG fusion proteins in MV4;11 leukemia cells; conditions: indicated concentrations, 16 hours
Procedure: FIG. 18A and FIG. 18B are immunoblots of cells treated with heterobifunctional compounds described in the present invention. Immunoblots of MV4; 11 leukemia cells expressing indicated proteins fused to mutant FKBP* with an HA tag. Cells were treated for 16 hours with indicated concentrations of FKBP* selective heterobifunctional compounds, dFKBP7 or dFKBP13 and abundance of fusion proteins measured by western immunoblot analysis. Additional experimental details are given in Example 15.
To test the general utility of the dTAG technology across several protein types, the indicated proteins fused to the dTAG in MV4; 11 leukemia cells were expressed. Upon treatment with the indicated dFKBP bifunctional molecules (dFKBP7 and dFKBP13), targeted protein degradation was observed as measured by western blot.

[2] = target: T1, FKBP12WT (Homo sapiens, UniProt P62942); assay: Immunoblot of wild type FKBP12 degradation in 293FT cells (CRBN-WT or CRBN-/-); conditions: 4 hours
T1 construct: HA; expressed in transfected cells; host or cells: 293FT cells (CRBN-WT or CRBN-/-)
Procedure: FIG. 6 is an immunoblot of cells treated with bi-functional molecules described in the present invention.
The dTAG is predicated on the selectivity of FKBP* specific ligands over endogenous, wild type FKBP. […] An immunoblot of cells treated with bi-functional molecules described in the present invention was performed. 293FT cells (CRBN-WT or CRBN−/−) expressing either HA-tagged FKBP12WT or FKBP* were treated with indicated concentrations of dFKBP7 for 4 hours.
Isogenic 293FT cells (CRBN-WT or CRBN−/−) were engineered to express either FKBP12WT or FKBP*. Cells were treated with 100 nM of either dFKBP7 or dFKBP13 for 4 hours before lysates were prepared for western immunoblot analysis.

[3] = tested on: FKBP* fused to Nluc; assay: Nluc/Fluc luciferase signal ratio assay of FKBP* degradation in 293FT cells; conditions: wild type or CRBN-/- 293FT cells; indicated concentrations, 4 hours
Procedure: FIG. 7A and FIG. 7B are graphs measuring the activity of a panel of dFKBP heterobifunctional compounds in cells expressing FKBP* fused to Nluc. Degradation of FKBP* is measured as a signal ratio (Nluc/Fluc) between NANOluc and firefly luciferase from the same multicistronic transcript in wild type (FIG. 7A) or CRBN −/− (FIG. 7B) 293FT cells treated with indicated concentrations of dFKBPs for 4 hours. A decrease in the signal ratio indicates FKBP* (Nluc) degradation. Additional experimental details are provided in Example 4.
In an effort to identify potent and selective dFKPB heterobifunctional compounds, high throughput measurements of targeted FKBP* degradation were measured by surrogate levels of luciferase. Here, FKBP* is exogenously expressed as a multicistronic transcript with two types of luciferase: nano luciferase (NLuc) and firefly luciferase (FLuc) that allow for cell normalized quantification of FKBP* protein levels. Degradation of FKBP* is measured as a signal ratio (Nluc/Fluc) in wild type (FIG. 7A) or CRBN −/− (FIG. 7B) 293FT cells treated with indicated concentrations of dFKBPs for 4 hours.

[4] = tested on: KRAS signaling (pMEK and pAKT); assay: Immunoblot of downstream surrogates of KRAS signaling in NIH3T3 cells expressing FKBP*-KRASG12V; conditions: NIH3T3 cells, N-terminal dTAG-KRAS; 500 nM, indicated time
Procedure: FIG. 19 is an immunoblot of NIH3T3 cells expressing KRASG12V allele fused to FKBP* in the N-terminus or C-terminus. Cells were treated with 500 nM dFKBP7 for the indicated time. Cells were harvested and immunoblotted to measure degradation of FKBP*-KRASG12V and downstream surrogates of KRAS signaling (e.g. pMEK and pAKT).
(§1) FIG. 20 is an immunoblot of NIH3T3 cells expressing FKBP* fused to the N-terminus of KRASG12V treated with 1 uM of the indicated dFKBP heterobifunctional compounds for 24 hours. Cells were harvested and immunoblotted to measure degradation of FKBP*-KRASG12V and downstream surrogates of KRAS signaling (e.g. pMEK and pAKT).
as §1, with “21” for “20”, “with” for “with 1 uM of”, “concentrations of dFKBP13” for “dFKBP heterobifunctional compounds”
FIG. 22 is an immunoblot of NIH3T3 cells expressing FKBP* fused to the N-terminus of KRASG12V treated with 1 uM dFKBP13 for the indicated time. Cells were harvested and immunoblotted to measure degradation of FKBP*-KRASG12V and downstream surrogates of KRAS signaling (e.g. pMEK and pAKT).
Cells were treated with 500 nM dFKBP7 for the indicated time. […]

T1 sequence (P62942 whole entry): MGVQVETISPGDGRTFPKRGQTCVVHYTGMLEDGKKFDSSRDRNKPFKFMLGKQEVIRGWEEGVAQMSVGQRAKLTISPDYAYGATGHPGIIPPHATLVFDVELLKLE

CC[C@H](C(=O)N1CCCC[C@H]1C(=O)O[C@H](CCc1ccc(OC)c(OC)c1)c1cccc(OCC(=O)NCCCOCCOCCOCCCNC(=O)COc2cccc3c2C(=O)N(C2CCC(=O)NC2=O)C3=O)c1)c1cc(OC)c(OC)c(OC)c1 (some centres unmarked) [dFKBP7]
Degradation of proteins fused to dTAG [1]: degradation was observed with nanomolar concentrations
Degradation of HA-tagged FKBP12WT (immunoblot) ([2]; 293FT cells CRBN-WT or CRBN-/-, indicated concentrations): not FKBPWT
Degradation of FKBP12WT or endogenous FKBP12 (immunoblot) ([2]; isogenic 293FT cells CRBN-WT or CRBN-/-, 100 nM): not FKBP12WT or endogenous FKBP12
FKBP* (Nluc) degradation, signal ratio Nluc/Fluc [3]: effectively degrade FKBP* in a cereblon dependent manner
p-AKT signal [4]: downstream decrease in p-AKT signal
